Test results: PMC5361735, “Characterization and mechanisms of anti-influenza virus metabolites isolated from the Vietnamese medicinal plant Polygonum chinense” (BMC Complementary and Alternative Medicine, 2017)

Tests used:
[1] = target: NA activity of influenza virus PR8 (Influenza A virus, UniProt P03468); assay type: biochemical
[2] = target: NA activity of rgPR8(H275Y) (Influenza A virus, UniProt P03468, H260Y); assay type: biochemical

O=C(O)/C=C/c1ccc(O)c(O)c1 [PC8, Caffeic acid] was tested, and the “NA inhibitory effect against PR8” value [1] was “less potent than that of OSV-C” and the “NA inhibitory effect against rgPR8(H275Y)” value [2] was “consistent activity”.
